In PubChem BioAssay (NCI):
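Test compounds were applied to cells in 96-well plates for 48 hours at 5 doses. TGI: concentration producing complete growth inhibition.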 Where a SMILES comes first, the peptide text is derived from it. The star is where a group is joined. Boc = CC(C)(C)OC(=O)*

Legend:
Assay in all cases: NCI anticancer screen, dose series, 48 h
[1] = system: COLO 205 colon
[2] = system: HCT-15 colon
[3] = system: K-562 leukemia
[4] = system: LOX IMVI melanoma
[5] = system: MALME-3M melanoma
[6] = system: MCF7 breast
[7] = system: MDA-MB-435
[8] = system: MDA-N
[9] = system: NCI-H460 lung
[10] = system: NCI-H522 lung
[11] = system: NCI/ADR-RES ovarian
[12] = system: OVCAR-5 ovarian
[13] = system: SF-268 CNS
[14] = system: SK-MEL-28 melanoma
[15] = system: SK-OV-3 ovarian
[16] = system: SNB-19 CNS
[17] = system: SR leukemia
[18] = system: OVCAR-3 ovarian

Row | SMILES | TGI [1] [µM] | TGI [2] [µM] | TGI [3] [µM] | TGI [4] [µM] | TGI [5] [µM] | TGI [6] [µM] | TGI [7] [µM] | TGI [8] [µM] | TGI [9] [µM] | TGI [10] [µM] | TGI [11] [µM] | TGI [12] [µM] | TGI [13] [µM] | TGI [14] [µM] | TGI [15] [µM] | TGI [16] [µM] | TGI [17] [µM] | TGI [18] [µM]
1 | O=C1NC(=S)NC1C(Cc1ccccc1)c1ccco1 (stereo not given) | > 100 | > 100 | > 100 | > 100 | > 100 | > 100 | > 100 | > 100 | > 100 | > 100 | > 100 | > 100 | > 100 | > 100 | > 100 | > 100 | > 100 | 
2 | CNC(=O)CNC(=O)C(NC(=O)CNC(=O)C1CCCN1C(=O)C(C)NC(=O)C(NC(=O)OC(C)(C)C)C(C)C)C(C)C (stereo not given) (Boc-VAPGVG-NHMe; configuration not given here) | > 100 | > 100 | > 100 | > 100 | > 100 | > 100 | > 100 | > 100 | > 100 | > 100 | > 100 | > 100 | > 100 | > 100 | > 100 | > 100 | > 100 | > 100
3 | CCCc1c(O)c2ccccc2[nH]c1=O | > 100 | > 100 | > 100 | > 100 | > 100 | > 100 | > 100 | > 100 | > 100 | > 100 | > 100 | > 100 |  | > 100 |  | > 100 | > 100 | > 100
4 | Cc1ccc(NC(=O)C23CC4CC(CC(C4)C2)C3)c(C(=O)NNC(=O)c2ccc(Cl)cc2)c1 | > 100 | 35.7 | 95 | 35.3 | 59.4 | 59.7 | 37.4 | 52.1 | 69.2 | 30.4 | 61.1 | 61.3 | > 100 |  | 39 | 8.91 | 30.1 | 66.9
5 | O=C(CC(O)(C(F)(F)Cl)C(F)(F)Cl)CC(O)(C(F)(F)Cl)C(F)(F)Cl | 3.07 | > 10 | 4.45 | > 10 | 4.36 | > 10 | 8.63 | > 10 | > 10 | > 10 | > 10 |  | > 10 | > 10 | 5.89 | > 10 | > 10 | > 10
6 | Cc1ccc(S(=O)(=O)NN=C2C(C)CC(C(C)(C)C)CC2C)cc1 (stereo not given) | 34.5 | 34.4 | 44.1 | 33.2 | 32.6 | 38.6 | 34.9 | 40.9 | 34.3 | 50.2 | 82.1 | 31.5 |  | 36.6 | 51.7 | 66 | 62.2 | 31.8
7 | Cc1ccc(C2=NN=C3C(c4ccccc4)=Nc4ccccc4N3C2)cc1 | > 100 | > 100 | > 100 | > 100 | 47.2 | > 89.3 | > 100 | > 100 | 18.6 | 26.8 | > 100 | 99.6 | > 49.4 | > 100 | 85.7 | > 78.3 | > 100 | 10.4
8 | Cc1cc(C)c2c(=O)cc(-c3ccccc3)[nH]c2c1 | > 52 | > 67.1 | > 100 | 41.2 | > 80.4 | 22.2 | 41.6 | 3.17 | 31.2 | 7.29 | 34.3 | > 92.3 | 46.7 | 35.3 | 15.7 | > 100 | > 100 | 25.6
9 | CCOc1ccc(-n2c(=O)c3nn4c(=O)n(-c5ccc(OCC)cc5)c(=O)c4nn3c2=O)cc1 | > 100 | > 100 | > 100 | > 100 | > 100 | > 100 | > 100 | > 100 | > 100 | > 100 | > 100 | > 100 | > 100 | > 100 | > 100 | > 100 | > 100 | > 100
10 | COc1ccc(NS(=O)(=O)c2ccc3ncn(NS(=O)(=O)c4ccc(I)cc4)c(=O)c3c2)cc1 | > 100 | > 100 | > 100 | > 100 | > 100 | > 100 | > 100 | > 100 | > 100 | > 100 | > 100 | > 100 | > 100 | > 100 | > 100 | > 100 | > 100 | > 100
11 | Cc1nn(C(=O)c2ccc(Cl)cc2)c2c1C(c1ccccc1)SC(N)=N2 (stereo not given) | > 10 | > 10 | > 10 | > 10 | > 10 | > 10 | > 10 | > 10 | > 10 | > 10 | > 10 | > 10 | > 10 | > 10 | > 10 | > 10 | > 10 | > 10
12 | CCc1nc2c(n1CC)C(=O)c1ccccc1C2=O | 43.4 | > 100 | > 100 |  | 34.3 | > 100 | 32.2 | > 10 | > 100 | 96 | > 100 | > 100 | > 100 | > 100 |  | > 100 | > 100 | 53.9
13 | CCCCN(CCCC)C1(c2cc3ccccc3s2)CCCCC1 | 31.3 | 30.8 | 32.9 | 28.3 |  | 32.1 | 27.3 | 31.5 | 27.9 | 25.6 | 34 | 32.9 | 34 | 34.1 | 36.3 | 33.8 | 33.5 | 29.9
